Measurements published in ChEMBL document CHEMBL5036305, “Modulation of the Passive Permeability of Semipeptidic Macrocycles: N- and C-Methylations Fine-Tune Conformation and Properties” (J Med Chem, 2021).

Assay: Apparent permeability across apical to basolateral side in human Caco-2 cells measured after 60 to 120 mins
Format: ADME, cell-based
Settings: time 60-120 min

CC(C)CN1CC(=O)N[C@@H](Cc2ccccc2)C(=O)NCCC[C@@H](C)C(=O)N[C@@H](C)C1=O
permeability: Permeable
